Tests used:
MCF-7 = assay: Clonogenic assay (clonal expansion); format: cell-based; details: Breast Cancer (MCF-7), ER+, inhibition of clonal expansion
Description: (§1) Cells were seeded at a density of 1-2×10^3 cells/well in a 6 well plate in RPMI 1640 supplemented with 10% FBS, penicillin (100 u/ml), streptomycin (100 u/ml), and L-glutamine (2 mM). Cells were treated with increasing concentrations of X15695 and cultured for 14 to 21 days. Medium and compounds were exchanged after 7 days. Cells were fixed with methanol/ acetic acid mixture (3:1 v/v) and the formation of colonies was visualized using 0.5% crystal violet (w/v) in 20% methanol (v/v). Plates were scanned in a conventional office scanner (Epson). The area covered by colonies was calculated using the ColonyArea Plugin for ImageJ.

ZR75-1 = assay: Clonogenic assay (clonal expansion); format: cell-based; details: Breast Cancer (ZR75-1), ER+, inhibition of clonal expansion
Description: as §1

LNCaP = assay: Clonogenic assay (clonal expansion); format: cell-based; details: Prostate Cancer (LNCaP), AR+, inhibition of clonal expansion
Description: as §1

22Rv.1 = assay: Clonogenic assay (clonal expansion); format: cell-based; details: Prostate Cancer (22Rv.1), AR+, inhibition of clonal expansion
Description: as §1

[1] = system: ER^+ and AR^+ breast and prostate cancer cells; details: proliferation of ER^+ and AR^+ breast and prostate cancer cells, previously reported; cited from earlier work
T47D = assay: Clonogenic assay (clonal expansion); format: cell-based; details: Homo sapiens; Breast Cancer (T47D), ER+; inhibition of clonal expansion
Description: as §1

DU145 = assay: Clonogenic assay (clonal expansion); format: cell-based; details: Homo sapiens, DU-145; Prostate Cancer (DU145), AR-; inhibition of clonal expansion
Description: as §1

PC3 = assay: Clonogenic assay (clonal expansion); format: cell-based; details: Homo sapiens; Prostate Cancer (PC3), AR-; inhibition of clonal expansion
Description: as §1

ERα = details: MCF-7 cells
Description: For Western blotting, cells were lysed in NP-40 lysis buffer (1% NP-40, 50 mM Tris-HCl, pH 8.0, 150 mM NaCl, 5 mM EDTA) or 1× passive lysis buffer (Promega, Germany) for 15 min on ice. Cell debris was removed by centrifugation at 13,000 rpm for 10 min and used for SDS-polyacrylamide gel electrophoresis (PAGE) and Western blotting.
Western Blotting was carried out using standard protocols with antibodies: p53 (clone DO1), p53 (Sp5, Thermo Fisher Scientific Karlsruhe, Germany), Mdm2 (4B2, Abcam, Cambridge, UK). […] Secondary goat anti-mouse and goat anti-rabbit antibodies were purchased from DAKO (Bollschweil, Germany).

TRMCF-7 cells = assay: Clonogenic assay (clonal expansion); format: cell-based
Description: as §1

[2] = system: TRMCF-7 cells (tamoxifen resistant MCF-7 cells); assay: MTT cell viability assay; format: cell-based; details: 48 h
Description: […] Cells transfected with siRNA were incubated for 72 h after X15695 addition. Thereafter, the medium was exchanged for a fresh medium containing 0.5 mg/ml MTT (Sigma-Aldrich) and incubated at 37°C for 1 h to 4 h (depending on cell line) until intracellular purple formazan crystals were formed. The MTT solution was removed, and the purple crystals were dissolved in isopropanol and the optical absorbance at 595 nm was recorded using SpectraMax iD3, Molecular Devices, San Jose, CA, USA.

With `Fc1ccc(-c2nc3cc(C(F)(F)F)ccc3s2)cc1` [Compound A4B17, reference compound] the IC50 (MCF-7) was 1.28 µM, the IC50 (ZR75-1) was 0.11 µM and the IC50 (LNCaP) was 1.6 µM. The IC50 (22Rv.1) was 3.4 µM and the IC50 values [1] was “in the micromolar range”.
In the case of `Fc1ccc(-c2cn3cc(Br)ccc3n2)cc1` [Compound X19168, 6-bromo-2-(4-fluorophenyl)imidazo[1,2-a]pyridine], the IC50 (MCF-7; Homo sapiens, MCF7) is reported as 0.012 µM and the IC50 (22Rv.1; Homo sapiens, 22Rv1) is reported as 0.641 ± 0.246 µM.
Molecule `Fc1ccccc1-c1cn2cc(C(F)(F)F)cc(Cl)c2n1` [Compound X19720, 8-Chloro-2-(2-fluorophenyl)-6-(trifluoromethyl)imidazo[1,2-a]pyridine] has an IC50 (MCF-7; Homo sapiens, MCF7) of 0.0145 µM, an IC50 (LNCaP; Homo sapiens) of less than 0.0001 µM and an IC50 (22Rv.1; Homo sapiens, 22Rv1) of 0.0044 ± 0.0016 µM.
`Cc1cc(Cl)c2nc(-c3ccc(F)cc3)cn2c1` [Compound X19724, 8-Chloro-2-(4-fluorophenyl)-6-methylimidazo[1,2-a]pyridine] gave an IC50 (T47D) of 0.0861 ± 0.0491 µM, an IC50 (MCF-7; Homo sapiens, MCF7) of 0.0033 ± 0.0009 µM and an IC50 (ZR75-1; Homo sapiens, ZR-75-1) of 0.0162 ± 0.0047 µM. The IC50 (LNCaP; Homo sapiens) was 0.0002 µM and the IC50 (22Rv.1; Homo sapiens, 22Rv1) was 0.0044 µM.
`Cc1cc(Cl)c2nc(-c3ccccc3)cn2c1` [Compound X19728, 8-Chloro-6-methyl-2-phenylimidazo[1,2-a]pyridine] gave an IC50 (MCF-7; Homo sapiens, MCF7) of 0.006 ± 0.0028 µM, an IC50 (ZR75-1; Homo sapiens, ZR-75-1) of 0.0392 ± 0.0243 µM and an IC50 (22Rv.1; Homo sapiens, 22Rv1) of 0.0485 ± 0.0133 µM.
`Fc1ccc(-c2cn3cc(C(F)(F)F)ccc3n2)cc1` [Compound X20046, 2-(4-Fluorophenyl)-6-(trifluoromethyl)imidazo[1,2-a]pyridine] gave an IC50 (T47D) of 0.0571 µM, an IC50 (MCF-7; Homo sapiens, MCF7) of 0.01 ± 0.0043 µM and an IC50 (ZR75-1; Homo sapiens, ZR-75-1) of 0.0318 µM. For the same molecule, the IC50 (LNCaP; Homo sapiens) was 0.0001 µM and the IC50 (22Rv.1; Homo sapiens, 22Rv1) was 0.0075 ± 0.0032 µM.
`FC(F)(F)c1cc(Cl)c2nc(-c3ccccc3)cn2c1` [X19166/ X15696, 8-Chloro-2-phenyl-6-(trifluoromethyl)imidazo[1,2-a]pyridine] showed an IC50 (DU145) of 3.58 µM, an IC50 (T47D) of 0.0447 ± 0.0114 µM and an IC50 (MCF-7; Homo sapiens, MCF7) of 0.0079 ± 0.0019 µM. It also gave an IC50 (ZR75-1; Homo sapiens, ZR-75-1) of 0.0102 ± 0.0027 µM, an IC50 (LNCaP; Homo sapiens) of less than 0.0001 µM and an IC50 (PC3) of 11.9 µM. It also gave an IC50 (22Rv.1; Homo sapiens, 22Rv1) of 0.0225 ± 0.0066 µM.
With `C[C@]12CC[C@@H]3c4ccc(O)cc4C[C@@H](CCCCCCCCC[S+]([O-])CCCC(F)(F)C(F)(F)F)[C@H]3[C@@H]1CC[C@@H]2O` (stereo partly drawn) [fulvestrant, reference compound] the “ERα downregulation over time” value (ERα; 1 µM, time course) was “rapidly downregulated ERα level within 4 h to 8 h recovering gradually thereafter”, the “concentration sufficient to downregulate ERα” value (ERα; 8 h) was no more than 1 nM and the “inhibition of clonal expansion” value (TRMCF-7 cells) was “slightly more efficacious than X15695”. The inhibition of viability [2] was “comparable activities”.
In the case of `CC/C(=C(\c1ccccc1)c1ccc(OCCN(C)C)cc1)c1ccccc1` [tamoxifen], the “inhibition of clonal expansion” value (TRMCF-7 cells) is reported as “inactive” and the inhibition of viability [2] is reported as “ineffective”.

From EP4417202A1, “ANTI-CANCER ACTION OF BAG1-SELECTIVE IMIDAZOPYRIDINE COMPOUNDS IN STEROID HORMONE RECEPTOR-POSITIVE BREAST AND PROSTATE CANCER” (Karlsruher Institut für Technologie, priority 2023, dated 2024)
